Laboratory results taken from patent publication US5089623A, “Certain imidate insecticides” (Imperial Chemical Industries Plc, priority 1990, dated 1992).

Tests used:
Type in all cases: in vivo
[1] = tested on: Aster Leafhopper [Macrosteles fascifrens (Stal)]; test: Aster leafhopper test (LH); conditions: adults/nymphs, 48 hours, percent in solution
[2] = tested on: Cabbage Looper [Trichoplusia ni (Hubner)]; test: Cabbage looper test (CL); conditions: second-instar larvae, 3-5 days, percent in solution
[3] = tested on: Maize weevil [Sitophilus Zeamais (Motschulsky)]; test: Maize weevil test (MW); conditions: adult weevils, treated corn seeds, 48 hours, percent in solution
How it was run: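 Adult weevils (10) were placed with four corn seeds that had been dipped 2-3 s in compound dissolved in 50:50 acetone:water, then dried, and held at about 25° C. Mortality was scored at 48 h. LC50 was taken from dosage-mortality curves and expressed as percent compound in solution, from a 0.01% top concentration.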

[4] = tested on: Beet Armyworm (Spodoptera exigua); test: Beet armyworm test (BAW)
Experimental: The compounds in Tables 1 and 2 above were tested for insecticidal activity using the following testing procedures. LC50 values, based on the results of these tests and calculated according to dosage-mortality curves, are expressed in Table 3.
Beet Armyworm (Spodoptera exigua)
Test compounds were diluted in a 50-50 acetone-water solution. Young leaves of sugar beets (Beta vulgaris) were immersed in the test solutions for 2-3 seconds and placed on a wire screen to dry. The dried leaves were placed in petri dishes containing a moistened filter paper and infested with five second-instar beet armyworm larvae. The dishes were placed in a high humidity chamber. Mortality of the larvae was recorded five days later. Test concentrations ranged from 0.1% downward. The LC-50 values are expressed below in Table 3 under the heading "BAW" in terms of percent of the test compound in solution.

[5] = tested on: Tobacco Budworm [Heliothis virescens (Fabricius)] eggs; test: Tobacco budworm egg test (TBW-E); conditions: percent in solution
[6] = tested on: Housefly [Musca domestica]; test: Housefly insecticidal test (HF); conditions: per 25 female houseflies, 48 hours
[7] = tested on: Tobacco Budworm [Heliothis virescens (Fabricius)]; test: Tobacco budworm contact test (TBW-C); conditions: second-instar larvae, 5 days, percent in solution
How it was run: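 Cotton cotyledons dipped 2–3 s in compound in 50:50 acetone–water, dried, then infested with 5 second-instar larvae and held 5 days at high humidity before scoring mortality.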

[8] = second-instar larvae, five days, percent in solution

| SMILES | LC50 LH [1] [%] | LC50 CL [2] [%] | LC50 MW [3] [%] | LC50 BAW [4, 8] [%] | LC50 TBW E [5] [%] | LC50 HF [6] [µg] | LC50 TBW C [7] [%] | LC50 BAW ([4]; 120 h) [%] |
| --- | --- | --- | --- | --- | --- | --- | --- | --- |
| Clc1cccc(N=C(OCc2cccc(Oc3ccccc3)c2)C(Cl)Cl)c1 [Compound 1] | > 0.05 | 0.005 | > 0.01 | 0.009 | 0.05 | 4.8 | 0.06 | – |
| CC(Cl)(Cl)C(=Nc1ccc(Cl)cc1)OCc1cccc(Oc2ccccc2)c1 [Compound 3] | > 0.05 | 0.012 | > 0.01 | 0.015 | > 0.1 | 50 | 0.009 | – |
| CC1(C(=Nc2ccc(Cl)cc2)OCc2cccc(Oc3ccccc3)c2)CC1 [Compound 5] | > 0.05 | 0.005 | > 0.01 | 0.025 | 0.05 | 21 | 0.008 | – |
| CC(C)C(=Nc1ccc(Cl)c(Cl)c1)OCc1cccc(Oc2ccccc2)c1 [Compound 9] | 0.0003 | 0.001 | > 0.01 | 0.0005 | 0.02 | 14 | 0.0008 | – |
| Clc1ccc(N=C(OCc2cccc(Oc3ccccc3)c2)C(Cl)Cl)cc1 [Compound 29] | 0.003 | 0.002 | > 0.01 | 0.003 | 0.01 | 5 | 0.001 | – |
| ClCC(=Nc1ccc(Cl)cc1)OCc1cccc(Oc2ccccc2)c1 [Compound 31] | > 0.05 | 0.05 | > 0.01 | 0.08 | > 0.1 | > 100 | 0.01 | – |
| Clc1ccc(N=C(OCc2cccc(Oc3ccccc3)c2)C2CC2)cc1 [Compound 32] | > 0.05 | 0.003 | > 0.01 | – | 0.1 | 37 | 0.006 | 0.03 |
| CC(Cl)C(=Nc1ccc(Cl)cc1)OCc1cccc(Oc2ccccc2)c1 (stereo not drawn) [Compound 33] | > 0.05 | 0.01 | > 0.01 | 0.02 | > 0.1 | 17 | 0.0025 | – |
| CC(=Nc1ccccc1)OCc1cccc(Oc2ccccc2)c1 [Compound 42] | > 0.05 | > 0.1 | > 0.01 | > 0.1 | > 0.1 | 45 | > 0.1 | – |
| FC(F)(F)c1ccc(N=C(OCc2cccc(Oc3ccccc3)c2)C(Cl)Cl)cc1 [Compound 61] | > 0.05 | 0.001 | > 0.01 | 0.002 | 0.03 | 29 | 0.03 | – |
| FC(F)(F)c1ccc(N=C(OCc2cccc(Oc3ccccc3)c2)C2CC2)cc1 [Compound 62] | > 0.05 | 0.005 | > 0.01 | – | 0.025 | 20 | 0.0015 | 0.02 |
| FC(F)(F)Oc1ccc(N=C(OCc2cccc(Oc3ccccc3)c2)C2CC2)cc1 [Compound 63] | 0.0001 | 0.005 | > 0.01 | – | 0.05 | 30 | 0.001 | 0.005 |
| FC(F)(F)Oc1ccc(N=C(OCc2cccc(Oc3ccccc3)c2)C(Cl)Cl)cc1 [Compound 64] | > 0.05 | 0.0025 | > 0.01 | 0.0025 | 0.03 | 11 | 0.1 | – |
| CC(C)C(=Nc1ccc(Cl)c(C(F)(F)F)c1)OCc1cccc(Oc2ccccc2)c1 [Compound 71] | 0.002 | 0.0006 | – | 0.0004 | 0.065 | 50 | 0.0008 | – |
| CC(C)C(=Nc1cc(F)cc(C(F)(F)F)c1)OCc1cccc(Oc2ccccc2)c1 [Compound 77] | 0.0002 | 0.0005 | > 0.01 | – | 0.03 | 10 | 0.0004 | 0.0004 |
| CC(C)C(=Nc1cccc(C(F)(F)F)c1)OCc1ccc(F)c(Oc2ccccc2)c1 [Compound 80] | 0.0001 | 0.0003 | – | 0.0018 | 0.005 | 4.5 | 0.00075 | – |
| CC(C)C(=Nc1ccc(C(C)C)cc1)OCc1cccc(Oc2ccccc2)c1 [Compound 144] | 0.0006 | 0.002 | > 0.01 | > 0.01 | 0.05 | 100 | 0.006 | – |
| CC(C)C(=Nc1ccc2c(c1)OCO2)OCc1cccc(Oc2ccc(F)cc2)c1 [Compound 176] | > 0.05 | 0.0005 | 0.009 | 0.0035 | 0.05 | 1.8 | 0.002 | – |
| CC(C)C(=Nc1cccc(C(F)(F)F)c1)OCc1ccc(F)c(Oc2ccc(F)cc2)c1 [Compound 268] | 0.0005 | 0.000025 | > 0.01 | 0.001 | 0.023 | 4 | 0.0005 | – |
| CC(C)C(=Nc1cccc(Cl)c1)OCc1cccc(Oc2ccc(Cl)cc2)c1 [Compound 270] | 0.003 | 0.00025 | > 0.01 | 0.005 | > 0.01 | 12 | > 0.0015 | – |
| CC(C)C(=Nc1ccc2c(c1)OC(F)(F)O2)OCc1ccc(F)c(Oc2ccc(F)cc2)c1 [Compound 284] | 0.0003 | 0.00005 | 0.0075 | 0.0025 | – | 39 | 0.0002 | – |
| CC(C)C(=Nc1ccc(F)c(Cl)c1)OCc1ccc(F)c(Oc2ccc(F)c(F)c2)c1 [Compound 346] | 0.05 | > 0.1 | – | > 0.1 | > 0.1 | 7.2 | 0.0002 | – |
